Test results from patent publication US20250092035A1, “ISOCITRATE DEHYDROGENASE 1 INHIBITORS AND METHODS OF USE THEREOF” (THE WISTAR INSTITUTE OF ANATOMY AND BIOLOGY, priority 2022, published 2025).
Like-named read-outs stand apart in the source and are kept apart here.

Experiments:
IDH1 [1] = biological target: T1, IDH1 (Homo sapiens, UniProt O75874); test: IC50 in two trials and mean (Example 1, assay not described); type: biochemical
IDH1 [2] = biological target: T1, IDH1; test: Two-step binding kinetics (Example 1, assay not described)
IDH1 [3] = biological target: T1, IDH1; test: IC50 dose-response curve fits (Example 1, assay not described); type: biochemical; conditions: for IC50: curve fit; for Bottom / Slope / Top: curve-fit parameter
[4] = Microsomal stability (mouse liver microsome assay)
[5] = reported (ref. 52); cited from earlier work
MiaPaCa2 xenograft = tested on: MiaPaCa2 xenograft
Protocol: In vivo studies. […] Mice were maintained under pathogen-free conditions in the animal facility. No additional food or nutrient-contained bedding provided to the animals during these studies. […] Mice with subcutaneous PDX were purchased from The Jackson Laboratory (#TM01212). […] Mice were imaged weekly to monitor tumor progression and tumor volume was assessed for each mouse and plotted longitudinally. […] All experiments with KPC mice were performed under a UK Home Office license and approved by the University of Glasgow Animal Welfare and Ethical Review Board. […] Tamoxifen dissolved in corn oil at 20 mg/ml, and animals received tamoxifen (75 mg/kg, IP administration, once daily) for six consecutive days. For flank xenograft experiments, 1×10^6 cells were suspended in 200 μL of a PBS:matrigel solution (1:1) and injected subcutaneously into the right flank of mice. For orthotopic experiments, 4×10^4 Luciferase-expressing KPC K8484 cells were suspended in 50 μL of a PBS:matrigel solution (1:1) and injected into the pancreas of C57BL/6 mice at 12 weeks of age. Equal number of male and female mice were used. Mice were anesthetized using isoflurane gas. After ensuring appropriate depth of anesthesia, a 0.5 cm left subcostal incision was made to gain access into the peritoneal cavity. The tail of the pancreas was externalized and the mixture was carefully injected into the pancreas. […]

[6] = Mouse pharmacokinetics study; conditions: CD-1, mouse, plasma, ip, 10 mg/kg
[7] = Trial 1, read-out: IC50, Trial 1
[8] = Trial 2, read-out: IC50, Trial 2
[9] = mean of the trials, read-out: Mean IC50
[10] = 1st step, read-out: KiAPP (affinity for 1st step)
[11] = 2nd step, read-out: KiAPP* (affinity for 2nd step)

T1 sequence (O75874 whole entry): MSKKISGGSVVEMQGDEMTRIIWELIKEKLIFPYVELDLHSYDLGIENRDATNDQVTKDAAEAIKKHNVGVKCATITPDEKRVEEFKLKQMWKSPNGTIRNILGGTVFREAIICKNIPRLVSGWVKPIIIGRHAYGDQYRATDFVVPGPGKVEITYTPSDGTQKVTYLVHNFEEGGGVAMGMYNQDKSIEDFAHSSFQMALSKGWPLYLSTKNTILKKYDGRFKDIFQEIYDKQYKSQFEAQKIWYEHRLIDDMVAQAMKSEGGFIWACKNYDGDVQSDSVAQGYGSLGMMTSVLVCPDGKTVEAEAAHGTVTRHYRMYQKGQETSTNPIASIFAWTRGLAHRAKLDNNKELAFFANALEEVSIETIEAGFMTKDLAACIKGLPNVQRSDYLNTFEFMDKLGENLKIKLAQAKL

Row | Structure (SMILES) | IC50 (IDH1 [1]; [7]) [µM] | IC50 (IDH1 [1]; [8]) [µM] | IC50 (IDH1 [1]; [9]) [µM] | also measured
1 | CC1(C)CN(C(=O)c2cccs2)Cc2c(C(=O)Nc3ncco3)nn(Cc3ccc(F)cc3)c21 [FSM-2-114] | 1.38 | 1.23 | 1.3 | –
2 | CC1(C)CN(C(=O)c2cccs2)Cc2c(C(=O)Nc3cccc(C(=O)NC4CCCCC4)c3)nn(Cc3ccc(F)cc3)c21 [IAP-1-37] | 0.019 | 0.018 | 0.019 | –
3 | C=CC(=O)Nc1cccc(NC(=O)c2nn(Cc3ccc(C(F)(F)F)cc3)c3c2CN(C(=O)c2cn[nH]c2)CC3(C)C)c1 [FSM-05-157] | – | – | – | k5 (on rate for 2nd step, min−1) (IDH1 [2]): 0.306 min⁻¹; k6 (off rate for 2nd step) (IDH1 [2]): 0.001 min⁻¹; Ki (IDH1 [2]; [10]): 23.6 µM; Ki (IDH1 [2]; [11]): 0.0648 µM
4 | CC1(C)CN(C(=O)c2ccc[nH]2)Cc2c(C(=O)Nc3cccc(C(=O)O)c3)nn(Cc3ccc(F)cc3)c21 [FSM-2-97] | > 10 | 7.83 | 7.83 | –
5 | CC1(C)CN(C(=O)c2ccc[nH]2)Cc2c(C(=O)Nc3nccs3)nn(Cc3ccc(F)cc3)c21 [FSM-2-115] | > 10 | > 10 | > 10 | –
6 | CC1(C)CN(C(=O)c2cccs2)Cc2c(C(=O)Nc3cccc(C(=O)O)c3)nn(Cc3ccc(F)cc3)c21 [FSM-2-98] | 6.26 | 5.07 | 5.63 | –
7 | CC1(C)CN(C(=O)c2cn[nH]c2)Cc2c(C(=O)Nc3cccc(NC(=O)CCCl)c3)nn(Cc3ccc(C(F)(F)F)cc3)c21 [FSM-05-141] | – | – | – | k5 (on rate for 2nd step, min−1) (IDH1 [2]): 0.257 min⁻¹; k6 (off rate for 2nd step) (IDH1 [2]): 0.002 min⁻¹; Ki (IDH1 [2]; [10]): 12.5 µM; Ki (IDH1 [2]; [11]): 0.0822 µM
8 | Cc1c[nH]c(C(=O)N2Cc3c(C(=O)Nc4cccc(C(C)O)c4)nn(Cc4ccc(F)cc4)c3C(C)(C)C2)c1 (stereo not shown) [IAP-1-40] | 0.52 | 0.475 | 0.497 | –
9 | CC(O)c1cccc(NC(=O)c2nn(Cc3ccc(F)cc3)c3c2CN(C(=O)c2cccn2C)CC3(C)C)c1 (stereo not shown) [IAP-1-39] | 0.045 | 0.047 | 0.046 | –
10 | CC1(C)CN(C(=O)c2cccs2)Cc2c(C(=O)Nc3cccc(C(N)=O)c3)nn(Cc3ccc(F)cc3)c21 [FSM-2-96] | 0.265 | 0.253 | 0.259 | –
11 | COc1cccc(NC(=O)c2nn(Cc3ccc(C(F)(F)F)cc3)c3c2CN(C(=O)c2cccs2)CC3(C)C)c1 [FSM-2-278] | – | – | – | IC50 (IDH1 [3]): 0.0029 µM; Bottom (IDH1 [3]): 4.6; Slope (IDH1 [3]): 1.0; Top (IDH1 [3]): 98.0
12 | CC(O)c1cccc(NC(=O)c2nn(Cc3ccc(C(F)(F)F)cc3)c3c2CN(C(=O)c2cn[nH]c2)CC3(C)C)c1 (stereo not shown) [FSM-2-302] | – | – | – | half-life at 0.5 μM ([4]; liver microsomes): 56.6 min; IC50 (IDH1 [3]): 0.036 µM; Bottom (IDH1 [3]): 4.0; Slope (IDH1 [3]): 1.0; Top (IDH1 [3]): 97.9
13 | C[C@@H]1CN(C(=O)c2ccc[nH]2)Cc2c(C(=O)Nc3cccc([C@@H](C)O)c3)nn(Cc3ccc(F)cc3)c21 [FSM-206, reference compound] | – | – | – | bioavailability [5]: poor bioavailability; Bottom (IDH1 [3]): −0.8; Slope (IDH1 [3]): 1.0; Top (IDH1 [3]): 98.0
14 | CC1(C)CN(C(=O)c2cccs2)Cc2c(C(=O)Nc3cccc(C(=O)NC4CCCC4)c3)nn(Cc3ccc(F)cc3)c21 [IAP-1-35] | 0.069 | 0.07 | 0.069 | –
15 | CC1(C)CN(C(=O)c2ccc[nH]2)Cc2c(C(=O)Nc3cccc(C(N)=O)c3)nn(Cc3ccc(F)cc3)c21 [FSM-2-95] | 0.309 | 0.294 | 0.301 | –
16 | CC1(C)CN(C(=O)c2ccc[nH]2)Cc2c(C(=O)Nc3cccc(C(=O)NC4CC4)c3)nn(Cc3ccc(F)cc3)c21 [IAP-1-23] | 1.03 | 0.961 | 0.996 | –
17 | COc1ccc(NC(=O)c2nn(Cc3ccc(C(F)(F)F)cc3)c3c2CN(C(=O)c2ccc[nH]2)CC3(C)C)cc1 [FSM-2-275] | – | – | – | IC50 (IDH1 [3]): 0.0033 µM; Bottom (IDH1 [3]): 3.6; Slope (IDH1 [3]): 1.3; Top (IDH1 [3]): 99.1
18 | COc1cccc(NC(=O)c2nn(Cc3ccc(C(F)(F)F)cc3)c3c2CN(C(=O)c2ccc[nH]2)CC3(C)C)c1 [FSM-2-277] | – | – | – | IC50 (IDH1 [3]): 0.0029 µM; Bottom (IDH1 [3]): 11.8; Slope (IDH1 [3]): 1.0; Top (IDH1 [3]): 99.3
19 | CC1(C)CN(C(=O)c2cccs2)Cc2c(C(=O)Nc3nccs3)nn(Cc3ccc(F)cc3)c21 [FSM-2-116] | > 10 | 8.11 | 8.11 | –
20 | Cn1cccc1C(=O)N1Cc2c(C(=O)Nc3ccccc3)nn(Cc3ccc(F)cc3)c2C(C)(C)C1 [VV-1-19] | 0.073 | 0.073 | 0.073 | –
21 | CC1(C)CN(C(=O)c2ccc[nH]2)Cc2c(C(=O)Nc3ncco3)nn(Cc3ccc(F)cc3)c21 [FSM-2-113] | 1.27 | 1.05 | 1.16 | –
22 | Cc1ncc2n1-c1ccc(Cl)cc1C(c1ccccc1F)=NC2 [Midazolam, reference compound] | – | – | – | half-life at 0.5 μM ([4]; microsomes): 1.76 min
23 | COc1ccc(NC(=O)c2nn(Cc3ccc(C(F)(F)F)cc3)c3c2CN(C(=O)c2cccs2)CC3(C)C)cc1 [FSM-2-276] | – | – | – | IC50 (IDH1 [3]): 0.0028 µM; Bottom (IDH1 [3]): 15.8; Slope (IDH1 [3]): 1.4; Top (IDH1 [3]): 98.9
24 | CC1(C)CN(C(=O)c2ccc[nH]2)Cc2c(C(=O)Nc3cccc(C(=O)NC4CCCC4)c3)nn(Cc3ccc(F)cc3)c21 [IAP-1-34] | 0.088 | 0.095 | 0.091 | –
25 | CC1(C)CN(C(=O)c2cn[nH]c2)Cc2c(C(=O)Nc3cccc(F)c3)nn(Cc3ccc(C(F)(F)F)cc3)c21 [FSM-3-02] | – | – | – | IC50 (IDH1 [3]): 0.113 µM; Bottom (IDH1 [3]): −0.9; Slope (IDH1 [3]): 1.0; Top (IDH1 [3]): 95.0
26 | Cc1ncsc1-c1ccc(CNC(=O)[C@@H]2C[C@@H](O)CN2C(=O)C(NC(=O)CCCCCCOc2cccc(NC(=O)c3nn(Cc4ccc(F)cc4)c4c3CN(C(=O)c3ccc[nH]3)CC4(C)C)c2)C(C)(C)C)cc1 (stereo partly shown) [FSM-3-17] | – | – | – | half-life at 0.5 μM ([4]; liver microsomes): 19.5 min
27 | CC1(C)CN(C(=O)c2cn[nH]c2)Cc2c(C(=O)Nc3ccc(F)cc3)nn(Cc3ccc(C(F)(F)F)cc3)c21 [FSM-3-002, N-(4-Fluorophenyl)-7,7-dimethyl-5-(1H-pyrazole-4-carbonyl)-1-(4-(trifluoromethyl)benzyl)-4,5,6,7-tetrahydro-1H-pyrazolo[4,3-c]pyridine-3-carboxamide] | – | – | – | xenograft growth (MiaPaCa2 xenograft; 75 mg/kg IP once daily): marked reduction in MiaPaCa2 xenograft growth; tolerability (MiaPaCa2 xenograft; mouse, in vivo, ip, 75 mg/kg): well-tolerated; Cmax [6]: 2.33 µg/mL; half-life at 0.5 μM ([4]; liver microsomes): 147 min
